Data reported in ChEMBL document CHEMBL5728427, “Apoptosis signal-regulating kinase 1 inhibitors and methods of use thereof” (2021).

Target: T1, Mitogen-activated protein kinase kinase kinase 5 (Homo sapiens, UniProt Q99683)
T1 sequence (Q99683 whole entry): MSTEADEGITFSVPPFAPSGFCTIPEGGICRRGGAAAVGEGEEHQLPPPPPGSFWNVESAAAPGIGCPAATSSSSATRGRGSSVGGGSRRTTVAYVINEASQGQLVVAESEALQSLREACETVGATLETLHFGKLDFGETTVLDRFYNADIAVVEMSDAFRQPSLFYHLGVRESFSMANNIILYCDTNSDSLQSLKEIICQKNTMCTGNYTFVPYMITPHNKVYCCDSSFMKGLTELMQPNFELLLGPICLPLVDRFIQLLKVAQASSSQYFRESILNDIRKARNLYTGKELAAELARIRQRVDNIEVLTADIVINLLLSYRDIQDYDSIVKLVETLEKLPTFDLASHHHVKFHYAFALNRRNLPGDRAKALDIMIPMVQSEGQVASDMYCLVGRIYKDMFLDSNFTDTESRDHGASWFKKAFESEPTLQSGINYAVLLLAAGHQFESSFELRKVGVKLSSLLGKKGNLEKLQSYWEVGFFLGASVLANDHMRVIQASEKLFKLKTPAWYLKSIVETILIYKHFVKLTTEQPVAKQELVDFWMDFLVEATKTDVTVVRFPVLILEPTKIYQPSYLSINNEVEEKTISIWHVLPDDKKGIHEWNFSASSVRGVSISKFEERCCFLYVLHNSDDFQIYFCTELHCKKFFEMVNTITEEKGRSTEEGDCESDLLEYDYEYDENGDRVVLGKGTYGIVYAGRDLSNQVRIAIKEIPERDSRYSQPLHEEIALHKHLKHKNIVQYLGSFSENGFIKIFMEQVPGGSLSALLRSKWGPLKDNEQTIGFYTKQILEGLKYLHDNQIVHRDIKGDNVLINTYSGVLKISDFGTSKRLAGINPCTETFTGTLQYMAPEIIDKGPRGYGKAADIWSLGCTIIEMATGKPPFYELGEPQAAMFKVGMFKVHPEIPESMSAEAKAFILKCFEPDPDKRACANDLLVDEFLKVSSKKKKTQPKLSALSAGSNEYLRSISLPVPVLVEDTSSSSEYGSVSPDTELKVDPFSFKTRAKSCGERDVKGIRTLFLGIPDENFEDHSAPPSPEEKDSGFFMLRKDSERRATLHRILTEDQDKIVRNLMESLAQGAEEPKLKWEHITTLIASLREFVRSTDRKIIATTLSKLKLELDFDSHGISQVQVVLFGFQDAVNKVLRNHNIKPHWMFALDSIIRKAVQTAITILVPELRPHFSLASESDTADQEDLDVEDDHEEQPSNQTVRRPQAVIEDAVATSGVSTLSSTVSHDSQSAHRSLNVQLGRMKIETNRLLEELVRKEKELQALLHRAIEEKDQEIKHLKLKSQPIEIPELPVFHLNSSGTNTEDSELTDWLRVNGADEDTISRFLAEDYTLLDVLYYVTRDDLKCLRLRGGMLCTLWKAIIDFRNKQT
Assay: HTRF KinEASE Assay: ASK1 was purchased from Thermofisher (Catalogue #PV4011), ATP was purchased from Sigma (Catalogue #A7699), HTRF® KinEASE™ Assay System was obtained from Cisbio (Bedford, Mass.). ½ Area plate was purchased from Perkin Elmer (Catalogue ##6005560). HTRF® KinEASE™-STK is a generic method for measuring serine/threonine kinase activities using a time-resolved fluorescence resonance energy transfer (TR-FRET) immunoassay. The IC50 value for each compound was determined in the presence of compound (various concentration from 0 to 10 μM) and a fixed amount of ATP and peptide substrates. The test compound, 1 uM STK3 peptide substrate, and 5 nM of ASK1 kinase are incubated with kinase reaction buffer containing 50 mM HEPES pH 7.5, 0.01% BRIJ-35, 10 mM MgCl2, and 1 mM EGTA for 30 minutes. 100 uM ATP is added to start kinase reaction and incubated for 3 hours. The STK3-antibody labeled with Eu3+-Cryptate and 125 nM streptavidin-XL665 are mixed in a single addition with stop reagents provided by the Cisbio kit used to stop the kinase reaction. Fluorescence is detected using an Envision Multilabeled 2014 reader from PerkinElmer. The Fluorescence is measured at 615 nm (Cryptate) and 665 nm (XL665) and a ratio of 665 nm/615 nm is calculated for each well. The resulting TR-FRET is proportional to the phosphorylation level. Staurosporine was used as the positive control.

For `Cc1cc(F)c(C(=O)Nc2cccc(-n3cnnc3)n2)cc1-n1cnc(C2CC2)c1`, the IC50 was > 1000 nM.
